Results published in patent US20250101027A1, “ORGANIC COMPOUND, LIGHT-EMITTING DEVICE, LIGHT-EMITTING APPARATUS, AND ELECTRONIC APPLIANCE” (SEMICONDUCTOR ENERGY LABORATORY CO., LTD., priority 2023, published 2025).
In brackets after ≈: the same amount, converted by molar mass.

Experiment: Solubility test in water by LC-MS analysis
Assay type: physicochemical
Conditions: for peak area value derived from the compound through the LC-MS analysis (solubility test in water): ultrasonic waves five minutes, filtrate diluted five times with acetonitrile, one atmosphere, room temperature
Experimental: Next, a solubility test of PrdP2Phen was performed. Note that the solubility test was conducted at a pressure of one atmosphere, at room temperature (RT).
In the LC-MS analysis, liquid chromatography (LC) separation was carried out with ACQUITY UPLC manufactured by Waters Corporation, and MS analysis (mass spectrometry) was carried out with Xevo G2 Tof MS manufactured by Waters Corporation. Acquity UPLC BEH C8 (2.1×100 mm, 1.7 μm) was used as a column for the LC separation. Acetonitrile was used for Mobile Phase A and a 0.1% aqueous solution of formic acid was used for Mobile Phase B. The injection amount of the sample was 5.0 μL. Note that in the analysis, the wavelength of a photodiode array detector was set to 263 nm±1 nm.
(§1) In a 5-mL sample bottle, I mg of PrdP2Phen was put and 1 mL of water was added thereto. This mixture was irradiated with ultrasonic waves for five minutes. This mixture was filtered through a membrane filter to remove the solid, and the resulting filtrate was diluted by five times with acetonitrile. The obtained solution was subjected to LC-MS analysis.
In a 5-mL sample bottle, 1 mg of Pyrrd-Phen was put and 2 mL of toluene was added thereto. This mixture was irradiated with ultrasonic waves for five minutes. After it was confirmed that the solid was completely dissolved, this solution was diluted by 5 times with acetonitrile, whereby the concentration of the solution was adjusted to 100 mg/L. This solution was diluted with a 3:7 toluene-acetonitrile mixed solvent, whereby a solution with a concentration of 20 mg/L, a solution with a concentration of 10 mg/L, and a solution with a concentration of 5 mg/L were prepared. The prepared solutions were subjected to LC-MS analysis, and the peak area values derived from Pyrrd-Phen, which were obtained at the respective solution concentrations, were used to form calibration curves.
Next, the water solubility of Pyrrd-Phen was measured.
as §1, with “bottle, 1” for “bottle, I”, “of Pyrrd-Phen” for “of PrdP2Phen”
Next, a solubility test of Hid-PrdPPhen was performed. Note that the solubility test was conducted at a pressure of one atmosphere at room temperature (RT).
In the LC-MS analysis, liquid chromatography (LC) separation was carried out with ACQUITY UPLC manufactured by Waters Corporation, and MS analysis (mass spectrometry) was carried out with Xevo G2 Tof MS manufactured by Waters Corporation. Acquity UPLC BEH C8 (2.1×100 mm, 1.7 μm) was used as a column for the LC separation. […]

[1] = 1 mg in 1 mL of water, filtered

SMILES	peak area value derived from the compound through the LC-MS analysis (solubility test in water) [1]	water solubility (in words) (conclusion from LC-MS solubility test)	solubility at 5 min (thermodynamic from solid, from calibration curve and LC-MS signal intensity, 1 mg in 1 mL of water, sonicated, filtered)
c1cc(-c2ccc(N3CCCC3)cc2)c2ccc3c(-c4ccc(N5CCCC5)cc4)ccnc3c2n1 [PrdP2Phen, 4,7-bis[4-(1-pyrrolidinyl)phenyl]-1,10-phenanthroline]	failed to be obtained		
c1cc(N2CCCC2)c2ccc3c(N4CCCC4)ccnc3c2n1 [Pyrrd-Phen, 4,7-di-1-pyrrolidinyl-1,10-phenanthroline]		high water solubility	59 µg/mL (≈ 185 µM)
c1cc(-c2ccc(N3CCCC3)cc2)c2ccc3c(N4CC5CCCCC5C4)ccnc3c2n1 (stereo not shown) [Hid-PrdPPhen, 4-(2,3,3a,4,5,6,7,7a-octahydro-1H-isoindol-2-yl)-7-[4-(I-pyrrolidinyl)phenyl]-1,10-phenanthroline]	failed to be obtained		
